Data: ChEMBL document CHEMBL2010737, “Synthesis, modeling and functional activity of substituted styrene-amides as small-molecule CXCR7 agonists” (Eur J Med Chem, 2012)
Active and inactive are the calls of the source. No cut-off for these calls is given here.

Tests used:
[1] = target: T1, Atypical chemokine receptor 3 (Homo sapiens, UniProt P25106); assay: Displacement of [125I]-CXCL12 from human CXCR7 expressed in HEK293 cells after 3 hrs; format: cell-based
[2] = target: T1, Atypical chemokine receptor 3; assay: Agonist activity at human CXCR7 expressed in HEK293 cells assessed as reduction of receptor surface expression at 10^-5 M after 1 hr by ELISA based internalization assay; format: functional, cell-based
[3] = target: T1, Atypical chemokine receptor 3; assay: Agonist activity at human CXCR7 expressed in HEK293T cells co-expressing beta-arrestin2-YFP assessed as beta-arrestin2 recruitment after 1 hr by BRET assay; format: functional, cell-based, HEK-293T; conditions: for Activity: HEK-293T
[4] = target: T1, Atypical chemokine receptor 3; assay: Agonist activity at human CXCR7 expressed in HEK293 cells assessed as reduction of receptor surface expression after 1 hr by ELISA based internalization assay; format: functional, cell-based

T1 sequence (P25106 whole entry): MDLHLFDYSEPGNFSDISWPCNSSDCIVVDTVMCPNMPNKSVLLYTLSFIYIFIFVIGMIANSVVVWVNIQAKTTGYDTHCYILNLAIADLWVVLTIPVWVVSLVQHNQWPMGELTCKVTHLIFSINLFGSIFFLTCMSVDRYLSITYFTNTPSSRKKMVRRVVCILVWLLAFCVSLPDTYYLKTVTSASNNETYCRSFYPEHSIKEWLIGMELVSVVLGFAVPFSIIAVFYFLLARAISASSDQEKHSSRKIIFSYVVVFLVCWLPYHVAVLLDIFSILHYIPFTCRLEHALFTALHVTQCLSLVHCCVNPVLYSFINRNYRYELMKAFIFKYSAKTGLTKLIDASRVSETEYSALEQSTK

Compound `COc1cc(C(=O)N(CCCN2CCOCC2)C/C(C)=C/c2ccccc2)cc(OC)c1OC` has a Ki [1] of 0.398 µM.

`COc1cc(C(=O)N(CCCO)C/C(C)=C/c2ccccc2)cc(OC)c1OC` was tested, and the Ki [1] was 1.58 µM.

Compound `COc1ccc(/C=C(\C)CN(CCC2CCCN2C)C(=O)c2ccc(OC)c(OC)c2)c(F)c1` (racemic) has a Ki [1] of 1.26 µM.

With `COc1cc(C(=O)N(CCCN2CCCCC2C)C/C(C)=C/c2ccccc2)cc(OC)c1OC` (racemic) the Ki [1] was 0.2 µM.

`COc1cc(C(=O)N(CCC2CCCN2C)C/C(C)=C/c2ccccc2)cc(OC)c1OC` (racemic) showed a Ki [1] of 0.0158 µM.

`COc1cc(C(=O)N(C/C=C(\C)c2ccccc2)CCC2CCCN2C)cc(OC)c1OC` (racemic) was tested, and the Ki [1] was 0.0126 µM.

With `COc1cc(C(=O)N(C/C=C/c2ccccc2)CCC2CCCN2C)cc(OC)c1OC` (racemic) the Ki [1] was 0.794 µM.

Compound `COc1ccc(C(=O)N(CCC2CCCN2C)C/C(C)=C/c2ccccc2)c(OC)c1` (racemic) has a Ki [1] of 1.26 µM.

Work on `COc1ccc(C(=O)N(CCC2CCCN2C)C/C(C)=C/c2ccccc2)cc1OC` (racemic) yielded a Ki [1] of 0.0251 µM.

`COc1ccc(C(=O)N(CCC2CCCN2C)C/C(C)=C/c2ccccc2)cc1C` (racemic) was tested, and the Ki [1] was 0.794 µM.

For `C/C(=C\c1ccccc1)CN(CCC1CCCN1C)C(=O)c1ccc2c(c1)OCCO2` (racemic), the Ki [1] was 0.794 µM.

`COc1cc(C(=O)N(CCC2CCCN2C)C/C(C)=C/c2ccc(F)cc2F)cc(OC)c1OC` (racemic) gave a Ki [1] of 0.0316 µM.

Work on `COc1ccc(C(=O)N(CCC2CCCN2C)C/C(C)=C/c2ccc(F)cc2F)cc1OC` (racemic) yielded a Ki [1] of 0.1 µM.

`COc1cc(C(=O)N(CCC2CCCN2C)C/C(C)=C/c2ccc(F)cc2)cc(OC)c1OC` (racemic) was tested, and the Ki [1] was 0.0501 µM.

For `COc1ccc(C(=O)N(CCC2CCCN2C)C/C(C)=C/c2ccc(F)cc2)cc1OC` (racemic), the Ki [1] was 0.0794 µM.

For `COc1cc(C(=O)N(CCC2CCCN2C)C/C(C)=C/c2cccc(F)c2)cc(OC)c1OC` (racemic), the Ki [1] was 0.0794 µM.

`COc1ccc(C(=O)N(CCC2CCCN2C)C/C(C)=C/c2cccc(F)c2)cc1OC` (racemic) was tested, and the Ki [1] was 0.1 µM.

With `COc1cc(C(=O)N(CCC2CCCN2C)C/C(C)=C/c2cc(F)cc(C(F)(F)F)c2)cc(OC)c1OC` (racemic) the Ki [1] was 5.01 µM, the Activity [2] was “Active” and the EC50 [3] was 1.4 µM.

Compound `COc1ccc(C(=O)N(CCC2CCCN2C)C/C(C)=C/c2cc(F)cc(C(F)(F)F)c2)cc1OC` (racemic) has a Ki [1] of 5.01 µM.

In the case of `COc1cc(C(=O)N(CCC2CCCN2C)C/C(C)=C/c2ccccc2F)cc(OC)c1OC` (racemic), the Ki [1] is reported as 0.00794 µM, the EC50 [3] is reported as 0.0016 µM and the Activity [3] is reported as “Dose-dependent effect”. The Activity [4] was “Dose-dependent effect” and the EC50 [4] was 0.0141 µM.

With `COc1ccc(C(=O)N(CCC2CCCN2C)C/C(C)=C/c2ccccc2F)cc1OC` (racemic) the Ki [1] was 0.02 µM, the EC50 [3] was 0.001 µM and the Activity [3] was “Dose-dependent effect”. The Activity [4] was “Dose-dependent effect” and the EC50 [4] was 0.0237 µM.

`COc1ccc(/C=C(\C)CN(CCC2CCCN2C)C(=O)c2cc(OC)c(OC)c(OC)c2)c(F)c1` (racemic) was tested, and the Ki [1] was 1.26 µM.

Work on `C/C(=C\c1ccc(F)cc1F)CN(CCC1CCCN1C)C(=O)c1ccc2c(c1)OCCO2` (racemic) yielded a Ki [1] of 1.58 µM.

Work on `C/C(=C\c1ccc(F)cc1F)CN(CCC1CCCN1C)C(=O)c1ccc2c(c1)OCO2` (racemic) yielded a Ki [1] of 3.16 µM.
